US20240116857A1 (St. Louis University, priority 2022, published 2024)

The compounds below were run on E. coli BW25113 (assay: MIC, 2-fold broth dilution, E. coli BW25113). Conditions: E. coli BW25113; asterisk in column 1-10.
Format: cell-based, Escherichia coli
“1,1′-((([1,1′-biphenyl]-4,4′-dicarbonyl)bis(azanediyl))bis(2-bromo-4,1-phenylene))bis(1-methylpiperidin-1-ium) [Example 88]” was tested, and the “MIC, μM 1-10” value was “* (1-10)”.

Same assay, conditions: E. coli BW25113; asterisk in column >50
“4,4′-(([1,1′-biphenyl]-4,4′-dicarbonyl)bis(azanediyl))bis(1,2-dimethylpyridin-1-ium) [Example 34]” was tested, and the “MIC, μM >50” value was “* (>50)”. “4,4′-(([1,1′-biphenyl]-4,4′-dicarbonyl)bis(azanediyl))bis(3-hydroxy-N,N,N-trimethylbenzenaminium) [Example 57]” was tested, and the “MIC, μM >50” value was “* (>50)”.

Same assay, conditions: Escherichia coli; E. coli BW25113; asterisk in column 10-50; read-out: MIC, μM 10-50
`C[n+]1ccc(NC(=O)c2ccc(-c3ccc(C(=O)Nc4cc[n+](C)cc4)cc3)cc2)cc1` [Example 8] gave an MIC of 10 to 50 µM. `C[n+]1ccc(Oc2ccc(NC(=O)c3ccc(C(=O)Nc4ccc(Oc5cc[n+](C)cc5)cc4)cc3)cc2)cc1` [Example 13, 4,4′-(((terephthaloylbis(azanediyl))bis(4,1-phenylene))bis(oxy))bis(1-methylpyridin-1-ium)] was tested, and the MIC was 10 to 50 µM.

Same assay, conditions: Escherichia coli; E. coli BW25113; asterisk in column >50; read-out: MIC, μM >50
In the case of `O=C(Nc1ccncc1)c1ccc(C(=O)Nc2ccncc2)cc1` [Example 1, N^1,N^4-di(pyridin-4-yl)terephthalamide], the MIC was greater than 50 µM. `C[n+]1ccc(NC(=O)c2ccc(C(=O)Nc3cc[n+](C)cc3)cc2)cc1` [Example 2, 4,4′-(terephthaloylbis(azanediyl))bis(1-methylpyridin-1-ium)] showed an MIC greater than 50 µM. `O=C(Nc1ccncc1)c1ccc2cc(C(=O)Nc3ccncc3)ccc2c1` [Example 3, N^2,N^6-di(pyridin-4-yl)naphthalene-2,6-dicarboxamide] gave an MIC greater than 50 µM. For `C[n+]1ccc(NC(=O)c2ccc3cc(C(=O)Nc4cc[n+](C)cc4)ccc3c2)cc1` [Example 4, 4,4′-((naphthalene-2,6-dicarbonyl)bis(azanediyl))bis(1-methylpyridin-1-ium)], the MIC was greater than 50 µM. Compound `O=C(Nc1ccncc1)[C@H]1CC[C@H](C(=O)Nc2ccncc2)CC1` [Example 5, (E)-N^1,N^4-di(pyridin-4-yl)cyclohexane-1,4-dicarboxamide] has an MIC greater than 50 µM. `C[n+]1ccc(NC(=O)[C@H]2CC[C@H](C(=O)Nc3cc[n+](C)cc3)CC2)cc1` [Example 6, 4,4′-((E)-cyclohexanedicarbonylbis(azanediyl))bis(1-methylpyridin-1-ium)] gave an MIC greater than 50 µM. `O=C(Nc1ccncc1)c1ccc(-c2ccc(C(=O)Nc3ccncc3)cc2)cc1` [Example 7, N^4,N^4′-di(pyridin-4-yl)-[1,1′-biphenyl]-4,4′-dicarboxamide] was tested, and the MIC was greater than 50 µM. In the case of `O=C(Nc1ccc(Nc2ccncc2)cc1)c1ccc(C(=O)Nc2ccc(Nc3ccncc3)cc2)cc1` [Example 9, N^1,N^4-bis(4-(pyridin-4-ylamino)phenyl)terephthalamide], the MIC was greater than 50 µM. `O=C(Nc1ccc(Nc2ccccn2)cc1)c1ccc(C(=O)Nc2ccc(Nc3ccccn3)cc2)cc1` [Example 10, N^1,N^4-bis(4-(pyridin-2-ylamino)phenyl)terephthalamide] showed an MIC greater than 50 µM. `O=C(Nc1ccc(Oc2ccncc2)cc1)c1ccc(C(=O)Nc2ccc(Oc3ccncc3)cc2)cc1` [Example 11, N^1,N^4-bis(4-(pyridin-4-yloxy)phenyl)terephthalamide] gave an MIC greater than 50 µM. `O=C(Nc1ccc(Cc2ccncc2)cc1)c1ccc(C(=O)Nc2ccc(Cc3ccncc3)cc2)cc1` [Example 12, N^1,N^4-bis(4-(pyridin-4-ylmethyl)phenyl)terephthalamide] gave an MIC greater than 50 µM. Work on `C[n+]1ccccc1Nc1ccc(NC(=O)c2ccc(C(=O)Nc3ccc(Nc4cccc[n+]4C)cc3)cc2)cc1` [Example 14, 2,2′-(((terephthaloylbis(azanediyl))bis(4,1-phenylene))bis(azanediyl))bis(1-methylpyridin-1-ium)] yielded an MIC greater than 50 µM. In the case of `O=C(Nc1ccc(Nc2ccncc2)cc1)c1ccc(-c2ccccc2)cc1` [Example 15, N-(4-(pyridin-4-ylamino)phenyl)-[1,1′-biphenyl]-4-carboxamide], the MIC was greater than 50 µM. `O=C(Nc1ccc(Nc2ccncc2)cc1)c1ccc(-c2ccc(C(=O)Nc3ccc(Nc4ccncc4)cc3)cc2)cc1` [Example 16, N^4,N^4′-bis(4-(pyridin-4-ylamino)phenyl)-[1,1′-biphenyl]-4,4′-dicarboxamide] gave an MIC greater than 50 µM.
